The test has as its system zebrafish larvae. Briefly: Ammonia excretion as an indicator of locomotor response to electrical stimulus. The class given is in vivo, Danio rerio. Conditions: MS-222 0.10 mg/mL in media; 30 larvae (4 dpf) per well; stimuli 3 uA, 50 msec, 30 times per hour for 12 hours; colorimetric ammonia assay; FIG. 7. The method, then: To create the graphs in the subsequent Examples, the initial conditions consisted of harvesting fertilized zebrafish eggs and placing them into embryo media and housed in an incubator with a constant temperature of 28.5° C. for the first several days of development, and throughout the course of experimentation. Embryo media consists of ultrapure water with 5 mM NaCl, 0.17 mM KCl, 0.33 mM CaCl2, 0.3 mm MgSO4 added. Embryo media was be used to make all final dilutions of test agents.
After the first 24 hours of incubation, the zebrafish larvae were treated with pronase solution (2 mg/ml in Embryo Medium) for several minutes to remove the larvae from their chorion. […] The 96-well plates were maintained in incubators at 28.5° C. and were removed from incubators only for testing or to refresh media.
Excretion of ammonia is a necessary consequence of protein breakdown. When proteins are converted to carbohydrates to provide energy, the amino group is removed and must be dealt with. In animals, the amino group is quickly oxidized to form ammonia. […] The concentration of ammonia excreted by the larvae was quantified by taking a sample of the media following the Examples and assaying it with a commercially available colorimetric assay kit (Ammonia Assay Kit #A1000, Sigma Biochemical) […]

Consider `CCOC(=O)c1cccc(N)c1.CS(=O)(=O)O` [MS-222], for which the “locomotor response of zebrafish to an electrical stimulus, based on excretion of ammonia” value is “decreases the locomotor response”.

The values are drawn from patent publication US20090035220A1, “HIGH THROUGHPUT SCREENING SYSTEM AND METHOD” (priority 2007, published 2009).
